Patent US20190126075A1, “FOOD AND DRINK PRODUCT CONTAINING POORLY DIGESTIBLE COMPOUND AND COLONIC-HYDROGEN-GAS PRODUCING AGENT” (Kyodo Milk Industry Co., Ltd., priority 2015, published 2019)
Marks after values point to notes of the source that are not given here.

Columns and labels:
[1] = system: fecal bacteria; experiment: H2 production in fecal incubation system, single digestion-resistant components (Example 1); type: cell-based, human; details: final concentration 0.5%; for subjects whose fecal samples showed a sample/control ratio of 10 or higher: 10 subjects; for ratio of the H2 production concentration in sample relative to control: 37° C. for 24 hours
Text: Twenty-three different types of digestion-resistant components (cellulose, isomaltooligosaccharide, lactose, fructooligosaccharide, galactooligosaccharide, cellobiose, xylooligosaccharide, xylitol, sorbitol, erythritol, maltitol, mannitol, pectin, sodium alginate, glucomannan, lignin, chitin, chitosan, resistant starch, resistant dextrin, reduced resistant dextrin, kale, or young barley leaf) were each diluted with phosphate buffered saline (PBS) to adjust the concentration to 2.5% (w/v). Among these components, those which were not completely dissolved were used in a suspended state. The control used was a PBS solution not containing any of these components.
Fecal samples were collected from 10 human healthy adult subjects (7 male, 3 female, average aged 35.8), and were used within 5 hours after defecation.
(§1) Twenty milliliters of an anaerobic dilution solution (a solution prepared by dissolving KH2PO4, Na2HPO4, L-cysteine hydrochloride, Tween 80, and 0.1% Resazurin in a vial, jet-injecting N2 and CO2 (80%, 20%) into the vial, and autoclaving the vial sealed with a butyl rubber stopper) was added to 5 g of each of the collected samples, and the mixture was stirred by vortexing and then centrifuged (at 1000 g for 1 min.) to remove solids such as undigested food debris. 160 μL of each of the fecal suspension supernatants harboring fecal bacteria was dispensed into an Eppendorf tube, and 40 μL of each of the prepared solutions of digestion-resistant components in PBS was added to each of the Eppendorf tubes (final concentrations of digestion-resistant components: 0.5%). The Eppendorf tubes containing a mixture of fecal suspension and digestion-resistant component were placed into vial bottles (40 mm×75 mm, 50 mL) while the lids of the tubes and bottles were left open, and a mixed gas of N2 and CO2 (79.8%, 20.2%) was jet-injected to render the Eppendorf tubes and the bottles anaerobic. The vials were sealed with butyl rubber stoppers and incubated in an incubator (at 37° C. for 24 hours). The experiments were done in duplicate per sample, with each experiment being repeated three times.
(§2) Half a milliliter of the gas in each of the vial bottles was collected in a 1.0 mL gastight syringe (produced by Hamilton Company) and analyzed by TRIlyzer (Taiyo Nippon Sanso Corporation). In this process, when concentration exceeded the detection limit, 1 mL of the sample was injected into a 50 mL vial bottle, diluted 50-fold, and subjected to concentration measurement. Before gas collection, the gas in the vial bottles was stirred five times using the syringe.
The ratio of the H2 production concentration in each of the samples relative to that in the control was calculated, and those sample/control ratios of 10 or higher are shaded in the table (Table 1).

[2] = system: fecal bacteria; experiment: H2 production in fecal incubation system, single components vs mixture of three (Example 2); type: cell-based, human; details: 14 subjects; 0.8% solution of each component in PBS
Description: as §1, §2
Each of maltitol, galactooligosaccharide and glucomannan was dissolved in PBS to give a 0.8% solution. Similarly, in order to prepare a mixed solution of the three components, these components were mixed at a concentration of 0.8% each, and dissolved in PBS. The control used was a PBS solution not containing any of these components.
Fecal samples from 14 human healthy adult subjects (11 male, 3 female, average aged 40.9) were used.
Fecal treatment and incubation, and H2 concentration measurement, were performed by the same procedures as in Example 1.

Row | Molecule | subjects whose fecal samples showed a sample/control ratio of 10 or higher [1] | ratio of the H2 production concentration in sample relative to control ([1]; Subject No. 1 fecal sample) | ratio of the H2 production concentration in sample relative to control ([1]; Subject No. 2 fecal sample) | ratio of the H2 production concentration in sample relative to control ([1]; Subject No. 3 fecal sample) | ratio of the H2 production concentration in sample relative to control ([1]; Subject No. 4 fecal sample) | ratio of the H2 production concentration in sample relative to control ([1]; Subject No. 5 fecal sample) | ratio of the H2 production concentration in sample relative to control ([1]; Subject No. 6 fecal sample) | ratio of the H2 production concentration in sample relative to control ([1]; Subject No. 7 fecal sample) | ratio of the H2 production concentration in sample relative to control ([1]; Subject No. 8 fecal sample) | ratio of the H2 production concentration in sample relative to control ([1]; Subject No. 9 fecal sample) | ratio of the H2 production concentration in sample relative to control ([1]; Subject No. 10 fecal sample) | subjects whose fecal samples showed a sample/control H2 production concentration ratio of 2 or higher [2] | subjects whose fecal samples showed a sample/control H2 production concentration ratio of 3 or higher [2] | subjects whose fecal samples showed a sample/control H2 production concentration ratio of 5 or higher [2]
1 | 4′-galactosyllactose [Galactooligosaccharide] | 5 of 10 | 5.3 | 18.5* | 35.8* | 16.9* | 15.4* | 22.1* | 0.8 | 0.8 | 0.1 | 5.9 | 8 of 14 | 0 of 14 | not in any
2 | O=C[C@H](O)[C@@H](O)[C@H](O[C@@H]1O[C@H](CO)[C@@H](O)[C@H](O)[C@H]1O)[C@H](O)CO [Cellobiose, cellobiose] | 7 of 10 | 25.7* | 37.0* | 67.3* | 76.5* | 8.1 | 52.0* | 3.1 | 7.5 | 46.4* | 18.9* | – | – | –
3 | OC[C@@H](O)[C@@H](O)CO [Erythritol, erythritol] | 2 of 10 | 12.7* | 27.6* | 3.8 | 1.5 | 7.1 | 1.8 | 4.0 | 1.8 | 1.0 | 2.1 | – | – | –
4 | OC[C@H]1O[C@@H](O[C@H]2[C@H](O)[C@@H](O)C(O)O[C@@H]2CO)[C@H](O)[C@@H](O)[C@H]1O (stereo partly shown) [Lactose, lactose] | 4 of 10 | 4.9 | 9.5 | 36.6* | 28.7* | 22.4* | 22.1* | 0.5 | 0.7 | 0.1 | 7.1 | – | – | –
5 | OC[C@@H](O)[C@@H](O[C@H]1O[C@H](CO)[C@@H](O)[C@H](O)[C@H]1O)[C@H](O)[C@@H](O)CO [Maltitol, 4-O-α-D-glucopyranosyl-D-glucitol] | 6 of 10 | 12.5* | 7.2 | 386.6* | 22.1* | 2.6 | 8.4 | 315.5* | 0.8 | 55.6* | 32.3* | 9 of 14 | 5 of 14 | 2 of 14
6 | OC[C@@H](O)[C@@H](O)[C@H](O)[C@H](O)CO [Mannitol, mannitol] | 5 of 10 | 2.2 | 28.2* | 234.7* | 81.9* | 6.6 | 76.2* | 54.3* | 1.7 | 0.0 | 3.5 | – | – | –
7 | OC[C@@H](O)[C@@H](O)[C@H](O)[C@@H](O)CO [Sorbitol, sorbitol] | 4 of 10 | 31.6* | 9.6 | 33.0* | 54.8* | 3.4 | 4.2 | 68.6* | 1.7 | 0.1 | 4.5 | – | – | –
8 | OC[C@@H](O)[C@H](O)[C@@H](O)CO [Xylitol, xylitol] | 6 of 10 | 18.4* | 11.1* | 40.2* | 72.4* | 8.8 | 3.2 | 1.4 | 1.9 | 12.5* | 60.2* | – | – | –
